Results published in patent US9394297B2, “Amides as pim inhibitors” (AMGEN INC., priority 2012, dated 2016).
pIC50: −log10 of the molar value. Read-outs that look alike come from different tables or passages of the source.

Tests used:
[1] = molecular target: T1, Pim-1 (Homo sapiens (Human), UniProt P11309); assay: Pim-Mn enzyme assay (HTRF, 384-well), Pim-1; format: biochemical; settings: Pim-1 enzyme 5 pM, ATP 1.5 μM, BAD (S112) 0.5 μM, HTRF, 22-point curve; read-out: Pim-1-Mn IC50 IP
[2] = tested on: KMS-12-BM myeloma cell line; assay: Pim KMS-12 cell assay (phospho-BAD S112 / total BAD, MSD)
[3] = molecular target: T1, Pim-1; assay: Pim enzyme assay (HTRF, 96-well), Pim-1; format: biochemical; settings: full length recombinant Pim-1, biotinylated-BAD (S112) peptide, 10-point curve, 2 h RT, read-out: Pim-1 IC50 IP
In short: (§1)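 HTRF detection of biotinylated BAD (S112) phosphorylation by full-length recombinant His-tagged Pim-1 or Pim-2 in 60 mM Hepes pH 7.0, 0.05% BSA, 2 mM DTT at 22 °C: 2 h for Pim-1, 45 min for Pim-2. Stopped with EDTA; IC50 from 4-parameter logistic fit of percent of control.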

[4] = molecular target: T2, Pim-2 (Homo sapiens (Human), UniProt Q9P1W9); assay: Pim-Mn enzyme assay (HTRF, 384-well), Pim-2; format: biochemical; settings: Pim-2 enzyme 0.5 pM, ATP 1.5 μM, BAD (S112) 0.5 μM, HTRF, 22-point curve; read-out: Pim-2-Mn IC50 IP
[5] = molecular target: T2, Pim-2; assay: Pim enzyme assay (HTRF, 96-well), Pim-2; format: biochemical; settings: full length recombinant Pim-2, biotinylated-BAD (S112) peptide, 10-point curve, 45 min RT, read-out: Pim-2 IC50 IP
In short: as §1

[6] = Homo sapiens, KMS-12-BM, read-out: KMS-12-BM IC50 IP, KMS-12-BM cells, phospho-BAD (S112) vs total BAD, 1 hour 50 min with compound
[7] = Homo sapiens, KMS-12-BM, read-out: KMS-12-BM IC50 IP

T1 sequence (P11309 whole entry): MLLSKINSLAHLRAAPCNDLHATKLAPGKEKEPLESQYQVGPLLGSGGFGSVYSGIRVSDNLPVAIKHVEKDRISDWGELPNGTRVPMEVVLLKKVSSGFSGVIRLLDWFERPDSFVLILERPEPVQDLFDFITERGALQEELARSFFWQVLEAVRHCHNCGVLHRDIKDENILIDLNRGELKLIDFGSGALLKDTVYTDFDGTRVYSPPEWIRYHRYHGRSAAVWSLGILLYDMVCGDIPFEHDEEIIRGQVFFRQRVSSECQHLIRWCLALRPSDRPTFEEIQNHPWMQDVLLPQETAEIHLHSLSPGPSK
T2 sequence (Q9P1W9 whole entry): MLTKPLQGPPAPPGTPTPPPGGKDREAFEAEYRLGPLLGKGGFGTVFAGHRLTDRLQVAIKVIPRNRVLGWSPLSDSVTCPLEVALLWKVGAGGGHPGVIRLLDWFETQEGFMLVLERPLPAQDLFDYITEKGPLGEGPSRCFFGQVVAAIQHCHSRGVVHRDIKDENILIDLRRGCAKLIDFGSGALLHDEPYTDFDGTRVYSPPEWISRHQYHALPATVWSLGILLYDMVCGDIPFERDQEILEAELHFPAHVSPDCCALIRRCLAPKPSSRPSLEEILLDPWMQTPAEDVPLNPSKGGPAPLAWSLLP

Cc1nc2cccc(-c3cc4c([nH]3)CCNC4=O)c2nc1N[C@H]1CC[C@@H](N)C1 (single isomer, unassigned) [Example 143, 2-(3-((cis-3-aminocyclopentyl)amino)-2-methylquinoxalin-5-yl)-6,7-dihydro-1H-pyrrolo[3,2-c]pyridin-4(5H)-one]
pIC50 [1]: 9.52 | pIC50 ([2]; read-out: KMS-12-BM IC50 IP, KMS-12-BM cells, phospho-BAD (S112) vs total BAD, 1 hour 50 min with compound): 6.36 | pIC50 [3]: 9.15 | pIC50 [4]: 9.40 | pIC50 [5]: 9.10

Cc1nc2cccc(-c3cc4c([nH]3)CCNC4=O)c2nc1NC1(C)CCC1 [Example 144, 2-(2-methyl-3-((1-methylcyclobutyl)amino)quinoxalin-5-yl)-6,7-dihydro-1H-pyrrolo[3,2-c]pyridin-4(5H)-one]
pIC50 [1]: 9.10 | pIC50 [2, 6]: 7.17 | pIC50 [3]: 8.70 | pIC50 [4]: 9.22 | pIC50 [5]: 8.80

O=C1NCCc2[nH]c(-c3cccc4ccc(Oc5ccccc5)nc34)cc21 [Example 37, 2-(2-phenoxyquinolin-8-yl)-6,7-dihydro-1H-pyrrolo[3,2-c]pyridin-4(5H)-one]
pIC50 [2, 6]: 5.26 | pIC50 [3]: 8.23 | pIC50 [5]: 7.86

O=C1NCCc2[nH]c(-c3cccc4ccc(Oc5c(F)cccc5F)nc34)cc21 [Example 176, 2-(2-(2,6-difluorophenoxy)quinolin-8-yl)-6,7-dihydro-1H-pyrrolo[3,2-c]pyridin-4(5H)-one]
pIC50 [2, 6]: 5.45 | pIC50 [3]: 8.59 | pIC50 [5]: 8.33

Nc1cccc(Nc2ccc3cccc(-c4cc5c([nH]4)CCNC5=O)c3n2)c1 [Example 110, 2-(2-((3-aminophenyl)amino)quinolin-8-yl)-6,7-dihydro-1H-pyrrolo[3,2-c]pyridin-4(5H)-one]
pIC50 [2, 6]: 5.95 | pIC50 [3]: 8.96 | pIC50 [5]: 8.54

O=C1NCCc2[nH]c(-c3cccc4ccc(N5CCOCC5)nc34)cc21 [Example 84, 2-(2-morpholinoquinolin-8-yl)-6,7-dihydro-1H-pyrrolo[3,2-c]pyridin-4(5H)-one]
pIC50 [2, 6]: 4.91 | pIC50 [3]: 7.69 | pIC50 [5]: 6.94

CN(c1ccccc1)c1cnc2cccc(-c3cc4c([nH]3)CCNC4=O)c2n1 [Example 188, 2-(3-(methyl(phenyl)amino)quinoxalin-5-yl)-6,7-dihydro-1H-pyrrolo[3,2-c]pyridin-4(5H)-one]
pIC50 [2, 7]: 6.00 | pIC50 [3]: 8.55 | pIC50 [5]: 8.36

O=C1NCCc2[nH]c(-c3cccc4ccc(Nc5ccccc5F)nc34)cc21 [Example 6, 2-(2-((2-fluorophenyl)amino)quinolin-8-yl)-6,7-dihydro-1H-pyrrolo[3,2-c]pyridin-4(5H)-one]
pIC50 [2, 6]: 5.93 | pIC50 [3]: 8.92 | pIC50 [5]: 8.34

CCN(c1cccnc1)c1ccc2cccc(-c3cc4c([nH]3)CCNC4=O)c2n1 [Example 32, 2-(2-(ethyl(pyridin-3-yl)amino)quinolin-8-yl)-6,7-dihydro-1H-pyrrolo[3,2-c]pyridin-4(5H)-one]
pIC50 [2, 6]: 5.86 | pIC50 [3]: 9.52 | pIC50 [5]: 9.22

Cc1nc2cccc(-c3cc4c([nH]3)CCNC4=O)c2nc1NC1CCCCC1 [Example 132, 2-(3-(cyclohexylamino)-2-methylquinoxalin-5-yl)-6,7-dihydro-1H-pyrrolo[3,2-c]pyridin-4(5H)-one]
pIC50 [2, 7]: 6.84 | pIC50 [3]: 8.28 | pIC50 [5]: 8.31

O=C1NCCc2[nH]c(-c3cccc4ccc(Nc5ccccc5)nc34)cc21 [Example 2, 2-(2-(phenylamino)quinolin-8-yl)-6,7-dihydro-1H-pyrrolo[3,2-c]pyridin-4(5H)-one]
pIC50 [2, 7]: 6.15 | pIC50 [3]: 8.80 | pIC50 [5]: 8.10

O=C1NCCc2[nH]c(-c3cccc4ccc(NC5CCCC5)nc34)cc21 [Example 78, 2-(2-(cyclopentylamino)quinolin-8-yl)-6,7-dihydro-1H-pyrrolo[3,2-c]pyridin-4(5H)-one]
pIC50 [2, 6]: 5.26 | pIC50 [3]: 8.44 | pIC50 [5]: 7.72

O=C1NCCc2[nH]c(-c3cccc4ncc(Oc5ccccc5)nc34)cc21 [Example 177, 2-(3-phenoxyquinoxalin-5-yl)-6,7-dihydro-1H-pyrrolo[3,2-c]pyridin-4(5H)-one]
pIC50 [2, 6]: 5.33 | pIC50 [3]: 7.91 | pIC50 [5]: 7.74

CN(c1ccccc1)c1ccc2cccc(-c3cc4c([nH]3)CCNC4=O)c2n1 [Example 4, 2-(2-(methyl(phenyl)amino)quinolin-8-yl)-6,7-dihydro-1H-pyrrolo[3,2-c]pyridin-4(5H)-one]
pIC50 [2, 7]: 5.63 | pIC50 [3]: 8.68 | pIC50 [5]: 8.17

Cc1nc2cccc(-c3cc4c([nH]3)CCNC4=O)c2nc1NC1CC1 [Example 194, 2-(3-(cyclopropylamino)-2-methylquinoxalin-5-yl)-6,7-dihydro-1H-pyrrolo[3,2-c]pyridin-4(5H)-one]
pIC50 [2, 6]: 7.20 | pIC50 [3]: 8.43 | pIC50 [5]: 8.70

O=C1NCCc2[nH]c(-c3cccc4ccc(Cc5ccccc5)nc34)cc21 [Example 3, 2-(2-benzylquinolin-8-yl)-6,7-dihydro-1H-pyrrolo[3,2-c]pyridin-4(5H)-one]
pIC50 [2, 7]: 5.21 | pIC50 [3]: 7.89 | pIC50 [5]: 7.43

O=C1NCCc2[nH]c(-c3cccc4ncc(Nc5ccccc5)nc34)cc21 [Example 180, 2-(3-(phenylamino)quinoxalin-5-yl)-6,7-dihydro-1H-pyrrolo[3,2-c]pyridin-4(5H)-one]
pIC50 [2, 6]: 6.41 | pIC50 [3]: 8.72 | pIC50 [5]: 8.55

Cc1nc2cccc(-c3cc4c([nH]3)CCNC4=O)c2nc1NC1CCCC1 [Example 130, 2-(3-(cyclopentylamino)-2-methylquinoxalin-5-yl)-6,7-dihydro-1H-pyrrolo[3,2-c]pyridin-4(5H)-one]
pIC50 [2, 6]: 6.43 | pIC50 [3]: 8.24 | pIC50 [5]: 8.26

Cc1cc2cccc(-c3cc4c([nH]3)CCNC4=O)c2nc1Nc1ccc(Br)cc1 [Example 106, 2-(2-((4-bromophenyl)amino)-3-methylquinolin-8-yl)-6,7-dihydro-1H-pyrrolo[3,2-c]pyridin-4(5H)-one]
pIC50 [2, 6]: 5.07 | pIC50 [3]: 8.35 | pIC50 [5]: 7.98

Cc1nc2cccc(-c3cc4c([nH]3)CCNC4=O)c2nc1NC(C)(C)C [Example 193, 2-(3-(tert-butylamino)-2-methylquinoxalin-5-yl)-6,7-dihydro-1H-pyrrolo[3,2-c]pyridin-4(5H)-one]
pIC50 [2, 6]: 7.12 | pIC50 [3]: 8.96 | pIC50 [5]: 8.89

CCN(c1ccccc1)c1ccc2cccc(-c3cc4c([nH]3)CCNC4=O)c2n1 [Example 14, 2-(2-(ethyl(phenyl)amino)quinolin-8-yl)-6,7-dihydro-1H-pyrrolo[3,2-c]pyridin-4(5H)-one]
pIC50 [2, 6]: 5.63 | pIC50 [3]: 8.96 | pIC50 [5]: 8.22

N[C@@H]1CCC[C@H](Nc2ccc3cccc(-c4cc5c([nH]4)CCNC5=O)c3n2)C1 (single isomer, unassigned) [Example 122, 2-(2-((cis-3-aminocyclohexyl)amino)quinolin-8-yl)-6,7-dihydro-1H-pyrrolo[3,2-c]pyridin-4(5H)-one]
pIC50 [2, 6]: 6.46 | pIC50 [3]: 10.00 | pIC50 [5]: 9.52

Cc1nc2cccc(-c3cc4c([nH]3)CCNC4=O)c2nc1NC1COC1 [Example 196, 2-(2-methyl-3-(oxetan-3-ylamino)quinoxalin-5-yl)-6,7-dihydro-1H-pyrrolo[3,2-c]pyridin-4(5H)-one]
pIC50 [2, 6]: 6.23 | pIC50 [3]: 7.62 | pIC50 [5]: 7.94

O=C1NCCc2[nH]c(-c3cccc4ccc(Oc5cccnc5)nc34)cc21 [Example 39, 2-(2-(3-pyridinyloxy)-8-quinolinyl)-1,5,6,7-tetrahydro-4H-pyrrolo[3,2-c]pyridin-4-one]
pIC50 [2, 6]: 5.27 | pIC50 [3]: 8.20 | pIC50 [5]: 8.34

Cc1nc2cccc(-c3cc4c([nH]3)CCNC4=O)c2nc1NC1CCOCC1 [Example 127, 2-(2-methyl-3-((tetrahydro-2H-pyran-4-yl)amino)quinoxalin-5-yl)-6,7-dihydro-1H-pyrrolo[3,2-c]pyridin-4(5H)-one]
pIC50 [2, 6]: 6.37 | pIC50 [3]: 7.77 | pIC50 [5]: 7.90

O=C1NCCc2[nH]c(-c3cccc4ccc(NC5CCCCC5)nc34)cc21 [Example 83, 2-(2-(cyclohexylamino)quinolin-8-yl)-6,7-dihydro-1H-pyrrolo[3,2-c]pyridin-4(5H)-one]
pIC50 [2, 7]: 5.54 | pIC50 [3]: 8.70 | pIC50 [5]: 7.82

CC1CNC(=O)c2cc(-c3cccc4ncc(Nc5ccccc5)nc34)[nH]c21 (racemic) [Example 187, rac-7-methyl-2-(3-(phenylamino)quinoxalin-5-yl)-6,7-dihydro-1H-pyrrolo[3,2-c]pyridin-4(5H)-one]
pIC50 [2, 6]: 5.89 | pIC50 [3]: 8.72 | pIC50 [5]: 8.37

O=C1NCCc2[nH]c(-c3cccc4ccc(Nc5ccc(Cl)cc5)nc34)cc21 [Example 15, 2-(2-((4-chlorophenyl)amino)quinolin-8-yl)-6,7-dihydro-1H-pyrrolo[3,2-c]pyridin-4(5H)-one]
pIC50 [2, 7]: 5.49 | pIC50 [3]: 8.40 | pIC50 [5]: 7.69
